According to PubChem BioAssay AID248 (DTP/NCI, 2004):
“And” between values parts separate entries of the source, which are not always exact repeats. Equal entries are not always repeated. Inconclusive results and toxic doses are left out. No stated cut-off is given here; in the data, active means T/C of 150% or more; inactive means T/C below 125%.

Test system: L1210 leukemia ip in BDF1 mice, survival T/C
Assay: NCI In Vivo Anticancer Drug Screen. Data for tumor model L1210 Leukemia (intraperitoneal) in B6D2F1 (BDF1) mice
Settings: endpoint: mean survival time, higher = longer survival
Method in brief: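 Tumor was transplanted into mice, which were then dosed with test compound or vehicle alone. Survival was recorded for each group, and the treated figure was expressed relative to the control figure.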

[1] = dose: 100.0 mg/kg/injection, schedule: Q01DX001 (ip), vehicle: water
[2] = dose: 100.0 mg/kg/injection, schedule: Q04DX002 (ip), vehicle: Klucel (hydroxypropylcellulose) (HPC)
[3] = dose: 200.0 mg/kg/injection, schedule: Q04DX002 (ip), vehicle: Klucel (hydroxypropylcellulose) (HPC)
[4] = dose: 400.0 mg/kg/injection, schedule: Q04DX002 (ip), vehicle: Klucel (hydroxypropylcellulose) (HPC)
[5] = dose: 100.0 mg/kg/injection, schedule: Q04DX003 (ip), vehicle: saline with Tween-80
[6] = dose: 200.0 mg/kg/injection, schedule: Q04DX003 (ip), vehicle: saline with Tween-80
[7] = dose: 400.0 mg/kg/injection, schedule: Q04DX003 (ip), vehicle: saline with Tween-80
[8] = dose: 100.0 mg/kg/injection, schedule: Q04DX003 (ip), vehicle: Klucel (hydroxypropylcellulose) (HPC)
[9] = dose: 200.0 mg/kg/injection, schedule: Q04DX003 (ip), vehicle: Klucel (hydroxypropylcellulose) (HPC)

Measured: T/C

CO[C@@H]1[C@@H](OC2OC(C)C(OC3CC(C)(O)C(OC(=O)CC(C)C)C(C)O3)C(N(C)C)C2O)[C@@H](CC=O)C[C@@H](C)C(=O)/C=C/C2O[C@H]2C[C@@H](C)OC(=O)C[C@H]1OC(C)=O (stereo not given in full)
inactive: dose: 50.0 mg/kg/injection, schedule: Q01DX Z (ip), vehicle: other 103 % of control | [1] 108 % of control | dose: 100.0 mg/kg/injection, schedule: Q01DX015 (ip), vehicle: water 102 % of control | dose: 100.0 mg/kg/injection, schedule: Q01DX Z (ip), vehicle: other 110 % of control | dose: 100.0 mg/kg/injection, schedule: Q#A X030 (ip), vehicle: water 108 % of control and 92 % of control | dose: 150.0 mg/kg/injection, schedule: Q01DX Z (ip), vehicle: other 105 % of control | dose: 150.0 mg/kg/injection, schedule: Q#A X030 (ip), vehicle: water 97 % of control | dose: 200.0 mg/kg/injection, schedule: Q01DX001 (ip), vehicle: water 106 % of control | dose: 200.0 mg/kg/injection, schedule: Q01DX015 (ip), vehicle: water 118 % of control | dose: 200.0 mg/kg/injection, schedule: Q01DX Z (ip), vehicle: methylcellulose (MC) 118 % of control | dose: 200.0 mg/kg/injection, schedule: Q01DX Z (ip), vehicle: other 105 % of control | dose: 200.0 mg/kg/injection, schedule: Q#A X030 (ip), vehicle: water 118 % of control | dose: 250.0 mg/kg/injection, schedule: Q01DX Z (ip), vehicle: methylcellulose (MC) 118 % of control | dose: 250.0 mg/kg/injection, schedule: Q01DX Z (ip), vehicle: other 115 % of control | dose: 300.0 mg/kg/injection, schedule: Q01DX015 (ip), vehicle: water 101 % of control and 118 % of control | dose: 300.0 mg/kg/injection, schedule: Q01DX Z (ip), vehicle: methylcellulose (MC) 116 % of control | dose: 350.0 mg/kg/injection, schedule: Q01DX Z (ip), vehicle: methylcellulose (MC) 116 % of control | dose: 400.0 mg/kg/injection, schedule: Q01DX001 (ip), vehicle: water 101 % of control | dose: 400.0 mg/kg/injection, schedule: Q01DX015 (ip), vehicle: water 87 % of control | dose: 600.0 mg/kg/injection, schedule: Q01DX001 (ip), vehicle: water 110 % of control

Ic1ccc([I+]c2ccc(I)cc2)cc1
inactive: [2] 106 % of control | [3] 106 % of control | [4] 106 % of control

c1ccc(P(c2ccccc2)N2CCN(P(c3ccccc3)c3ccccc3)CC2)cc1
inactive: dose: 100.0 mg/kg/injection, schedule: Q04DX002 (ip), vehicle: saline with Tween-80 96 % of control | dose: 200.0 mg/kg/injection, schedule: Q04DX002 (ip), vehicle: saline with Tween-80 93 % of control | dose: 400.0 mg/kg/injection, schedule: Q04DX002 (ip), vehicle: saline with Tween-80 104 % of control

O=C(NC(=S)N1CCCC1)c1ccccc1
inactive: [2] 96 % of control | [3] 107 % of control | [4] 96 % of control

CC1(C(N)=O)CCCC2(C)c3ccccc3CCC12 (stereo not given)
inactive: [5] 92 % of control | [6] 95 % of control | [7] 94 % of control

CC(=O)c1ccc(F)cc1
inactive: dose: 50.0 mg/kg/injection, schedule: Q01DX009 (ip), vehicle: Klucel (hydroxypropylcellulose) (HPC) 98 % of control | dose: 100.0 mg/kg/injection, schedule: Q01DX009 (ip), vehicle: Klucel (hydroxypropylcellulose) (HPC) 98 % of control | [8] 86 % of control | dose: 200.0 mg/kg/injection, schedule: Q01DX009 (ip), vehicle: Klucel (hydroxypropylcellulose) (HPC) 97 % of control | [9] 98 % of control

CCN1CCCN(CC)C1=O
inactive: [2] 96 % of control | [3] 96 % of control | [4] 90 % of control

C#CC(=O)OCC
inactive: dose: 12.5 mg/kg/injection, schedule: Q04DX003 (ip), vehicle: saline with Tween-80 103 % of control | dose: 25.0 mg/kg/injection, schedule: Q01DX001 (ip), vehicle: saline with Tween-80 105 % of control | dose: 25.0 mg/kg/injection, schedule: Q04DX003 (ip), vehicle: saline with Tween-80 106 % of control | dose: 50.0 mg/kg/injection, schedule: Q01DX001 (ip), vehicle: saline with Tween-80 108 % of control | dose: 50.0 mg/kg/injection, schedule: Q04DX003 (ip), vehicle: saline with Tween-80 119 % of control

CC(=O)OC1C(C)C2C=CC(=O)C2(C)CC2C1OC(=O)C2(O)CO (stereo not given)
inactive: dose: 25.0 mg/kg/injection, schedule: Q04DX002 (ip), vehicle: saline 116 % of control | dose: 50.0 mg/kg/injection, schedule: Q04DX002 (ip), vehicle: saline 113 % of control | dose: 100.0 mg/kg/injection, schedule: Q04DX002 (ip), vehicle: saline 95 % of control

O=C(O)c1ccc(Oc2ccc([N+](=O)[O-])cc2)cc1
inactive: dose: 100.0 mg/kg/injection, schedule: Q01DX001 (ip), vehicle: Klucel (hydroxypropylcellulose) (HPC) 94 % of control | [8] 102 % of control | dose: 200.0 mg/kg/injection, schedule: Q01DX001 (ip), vehicle: Klucel (hydroxypropylcellulose) (HPC) 102 % of control | [9] 92 % of control | dose: 400.0 mg/kg/injection, schedule: Q01DX001 (ip), vehicle: Klucel (hydroxypropylcellulose) (HPC) 108 % of control | dose: 400.0 mg/kg/injection, schedule: Q04DX003 (ip), vehicle: Klucel (hydroxypropylcellulose) (HPC) 96 % of control

CCOCc1cccc2ccccc12
inactive: [5] 106 % of control | [6] 98 % of control | [7] 102 % of control

COC(=O)C1=C(\N2CCOCC2)CCCC/C=C\1C(=O)OC
inactive: dose: 100.0 mg/kg/injection, schedule: Q01DX001 (ip), vehicle: carboxymethylcellulose (CMC) 108 % of control | dose: 200.0 mg/kg/injection, schedule: Q01DX001 (ip), vehicle: carboxymethylcellulose (CMC) 105 % of control | dose: 400.0 mg/kg/injection, schedule: Q01DX001 (ip), vehicle: carboxymethylcellulose (CMC) 102 % of control

CCOC(=O)C(C#N)S(C)(=O)=O (stereo not given)
inactive: dose: 100.0 mg/kg/injection, schedule: Q01DX001 (ip), vehicle: saline 89 % of control | dose: 200.0 mg/kg/injection, schedule: Q01DX001 (ip), vehicle: saline 95 % of control

CCCCCCCCCCCCCCCC[N+](C)(C)c1nc(Cl)nc(Cl)n1
inactive: dose: 3.75 mg/kg/injection, schedule: Q01DX009 (ip), vehicle: saline 102 % of control | dose: 7.5 mg/kg/injection, schedule: Q01DX009 (ip), vehicle: saline 97 % of control | dose: 15.0 mg/kg/injection, schedule: Q01DX009 (ip), vehicle: saline 96 % of control | dose: 30.0 mg/kg/injection, schedule: Q01DX009 (ip), vehicle: saline 96 % of control | dose: 37.5 mg/kg/injection, schedule: Q04DX003 (ip), vehicle: saline 102 % of control | dose: 50.0 mg/kg/injection, schedule: Q01DX001 (ip), vehicle: water 105 % of control | dose: 75.0 mg/kg/injection, schedule: Q04DX003 (ip), vehicle: saline 102 % of control | [1] 100 % of control
